Test results reported in PubChem BioAssay (NCI).
Several values for one entry are separate records, joined by “and”; a condition that tells them apart may be missing. Equal entries are not always repeated.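 96-well plates; 48 h exposure; 5 concentrations. Endpoints by linear interpolation between flanking doses. Not reached: highest tested concentration assigned. GI50 = concentration required for 50% inhibition of growth. The concentration for full growth arrest is given as TGI.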

Legend:
Test in all cases: DTP human tumour cell line panel, 48 h
[1] = system: UO-31 renal
[2] = system: MCF7 breast
[3] = system: SF-268 CNS
[4] = system: HCT-116 colon
[5] = system: HCC-2998 colon
[6] = system: PC-3 prostate
[7] = system: HT29 colon
[8] = system: NCI-H226 lung
[9] = system: KM12 colon
[10] = system: SF-295 CNS

Row | SMILES | GI50 [1] | TGI [1] | GI50 [2] | TGI [2] | GI50 [3] | TGI [3] | GI50 [4] | TGI [4] | GI50 [5] | TGI [5] | GI50 [6] | TGI [6] | GI50 [7] | TGI [7] | GI50 [8] | TGI [8] | GI50 [9] | TGI [9] | GI50 [10] | TGI [10]
1 | CCOC(=O)[C@H](CSSc1ncnc2cc[nH]c12)NC(=O)[C@@H](C)c1ccc2cc(OC)ccc2c1 | 0.736 µM | > 100 µM | 0.122 µM | > 100 µM | 2.74 µM | > 100 µM | 0.474 µM | > 100 µM | 1.29 µM | > 100 µM | 2.78 µM | > 100 µM | 1.38 µM | > 100 µM | 0.614 µM | > 100 µM | 1.61 µM | > 100 µM | 0.438 µM | > 100 µM
2 | O=C1C=C(Nc2ccccc2)c2ncccc2C1=O | 0.333 µM | 1.32 µM | 0.203 µM | 0.452 µM | 0.446 µM | 1.8 µM | 0.291 µM | 0.883 µM | 1.55 µM | 3 µM | 0.439 µM | 2.29 µM | 2.78 µM | > 26.7 µM | 1.71 µM | 3.61 µM | 0.669 µM | 2.11 µM | 1.31 µM | 2.6 µM
3 | NC1=NC(=O)N2CC12 (stereo unspecified) | 163 µM | > 100 µM and 605 µM | 137 µM | 768 µM | – | > 100 µM and 209 µM | 73.9 µM | 166 µM | 520 µM | > 100 µM and 1250 µM | 86.1 µM and 321 µM | 1130 µM | 400 µM | > 100 µM and 3130 µM | 184 µM | > 100 µM and 896 µM | 436 µM | > 100 µM and 1070 µM | 68.6 µM and 73.1 µM | > 100 µM and 219 µM
4 | CS(=O)(=O)CCNCc1ccc(-c2ccc3ncnc(Nc4ccc(OCc5ccccc5)c(C(F)(F)F)c4)c3c2)o1 | 5.25 µM | 17.2 µM | 4.55 µM | 9.59 µM | 7.99 µM | > 25 µM | 4.27 µM | 7.88 µM | 4.35 µM | 8.25 µM | 6.88 µM | > 21 µM | 4.95 µM | 9.05 µM | 7.75 µM | > 25 µM | 5.48 µM | 11.3 µM | 5.1 µM | 10.6 µM
5 | COc1cc2c(c(OC)c1OC)-c1ccc(OC)c(=O)cc1[C@@H](NC(=O)CCl)CC2 | 0.0673 µM | 45.3 µM | < 0.01 µM | 17.4 µM | < 0.01 µM | 3.53 µM | < 0.01 µM | 0.0157 µM | < 0.01 µM | 22.3 µM | < 0.01 µM | 30.9 µM | < 0.01 µM | 10.1 µM | 0.0357 µM | 10.9 µM | < 0.01 µM | 0.0521 µM | < 0.01 µM | 0.0743 µM
6 | C/C(=C\c1ccn(-c2ccc(N)c(C(F)(F)F)c2)n1)[C@@H]1C[C@@H]2O[C@]2(C)CCC[C@H](C)[C@H](O)[C@@H](C)C(=O)C(C)(C)[C@@H](O)CC(=O)O1 | 0.055 µM | > 32.5 µM | 0.00385 µM | > 16 µM | 0.0349 µM | > 32.5 µM | 0.00733 µM | > 29.3 µM | 0.0317 µM | > 20.4 µM | 0.0119 µM | > 31 µM | 0.00542 µM | 6.13 µM | 1.99 µM | > 32.5 µM | 0.00869 µM | > 32.5 µM | 0.0155 µM | 7.23 µM
7 | C=C(C)C(=O)NC(N)=NC#N | 134 µM | > 92.1 µM and 265 µM | 109 µM | 248 µM | 139 µM | 62.5 µM and 354 µM | 131 µM | 257 µM | – | 261 µM | – | 293 µM | 102 µM | 248 µM | – | 330 µM | 147 µM | 286 µM | 179 µM | 330 µM
8 | CN(C)CC/C=C1\c2ccccc2Sc2ccc(Cl)cc21 | 2.96 µM | 15.6 µM and 21.5 µM | 1.81 µM | 3.37 µM and 30.3 µM | 3.78 µM | 14.1 µM and 30.1 µM | 2.4 µM | 6.13 µM and 24.4 µM | 1.68 µM | 3.43 µM and 4.76 µM | 3.03 µM | 12.5 µM and 26 µM | 1.98 µM | 3.96 µM and 16.4 µM | 2.45 µM | 9.11 µM and 38 µM | 2.54 µM | 6.08 µM and 37.9 µM | 1.78 µM | 4.09 µM and 29.7 µM
9 | CON(C)C(=O)C(Cc1ccccc1)NC(=O)OC(C)(C)C (stereo unspecified) | – | > 100 µM | – | > 100 µM | – | > 100 µM | – | > 100 µM | – | > 100 µM | – | > 100 µM | – | > 100 µM | – | > 100 µM | – | > 100 µM | – | > 100 µM
